Test results taken from patent publication US20110092488A1, “Quninoline Methanol Compounds for the Treatment and Prevention of Parasitic Infections” (priority 2005, published 2011).
pIC50: −log10 of the molar value. ≈ marks a conversion by molar mass, not a printed value. Where two headings read alike, the source gives them in different places.

How the values were obtained:
[1] = test system: primary rat forebrain neurons; assay: Neurocytotoxicity assay (MTT)
Procedure: The neurocytotoxicity assay of AAQMs was conducted as per Dow et al.; The antimalarial potential of 4-quinolinecarbinolamines may be limited due to neurotoxicity and cross-resistance in mefloquine-resistant Plasmodium falciparum strains; Chemother. (48) 2624-2632 (2004) and is incorporated herein, by reference. This assay utilizes primary rat forebrain neurons and is a multi-endpoint screen. […] The AAQMs outlined in Table 1 were screened at 10, 100 and 1000 μM in triplicate, and the reduction in viability observed was determined using the 3-(4,5-dimethylthiazol-2-yl)-2,5-diphenyltetrazolium bromide (MTT) assay as per Dow et al., discussed above. Approximate IC50 values were calculated on the basis of the level of inhibition observed at each concentration. Full dose response assays were run for mefloquine and WR069878 with two fold dilutions (n=6 wells per dilution) and 11 dilutions for each drug. IC50s were calculated using Prism. Each time the assay is conducted, 20 μM mefloquine is included, as a control. […] Assays are re-run if the loss of viability induced by mefloquine is <40% or >60%. Neuroprotection experiments with 6,7-dinitroquinoxaline-2,3-dione (DNQX) and magnesium were performed as per Dow et al.; Transcriptional profiling of mefloquine-induced disruption of calcium homeostasis in neurons in vitro; Genomics (86)539-550 (2005), which is incorporated by reference, herein. Neurons were exposed to DNQX (100 μM) or magnesium (12 mM) for 5 min, followed by mefloquine (25 μM) or WR069878 (250 μM) for 20 min after which reduction in cell viability was determined. […] DNQX is an inhibitor of non-N-methyl-D-aspartate (NMDA) receptors, whilst magnesium inhibits the functioning of the inositol 1,4,5-trisphosphate (IP3)-mediated calcium signaling pathway at several points. The effects of mefloquine and WR069878 on neuronal calcium homeostasis were assessed utilizing confocal microscopy as per Dow et al, as discussed in Antimicrob Agents Chemother. (48)2624-2632 (2004), cited above, and incorporated by reference, herein. Briefly neurons were loaded with calcium sensitive dye Fluo 3-A for 1 h and were washed prior to image experiments. Neurons were ‘spiked’ with 100 μM mefloquine or WR069878. Subsequent changes in neuronal calcium homeostasis were recorded as fluctuations in the emitted fluorescence of fluo-3-complexed calcium at 530 nm (excitation was 488 nm). Sequential image scans of fields containing 5-25 neurons were used to construct temporal profiles. Scans were made at 10 s intervals. Fluorescence levels for each neuron were normalized 12 to time zero values. Data were then pooled from three and five independent experiments for mefloquine and WR069878 respectively.

P. falciparum W2 = assay: In vitro antimalarial activity against P. falciparum W2; format: cell-based, Plasmodium falciparum
Procedure: The in vitro activities of AAQMs against P. falciparum strains W2, D6, TM91C235 and TM90C2A were evaluated using the method of Desjardins et al. as modified by Milhous et al. W2 is chloroquine resistant and mefloquine sensitive, D6 is chloroquine sensitive but naturally less susceptible to mefloquine, TM91C235 is resistant to mefloquine, chloroquine and pyrimethamine as is TM90C2A, however this latter parasite is a two pfmdr1 copy strain. We routinely run mefloquine in this screen as a control to ensure assay validity.

[2] = test system: FVO strain of P. falciparum; assay: Efficacy in P. falciparum-challenged Aotus monkeys; format: in vivo, Plasmodium falciparum in Aotus lemurinus lemurinus

Structure (SMILES): CCCCN(CCCC)CC(O)c1cc(-c2ccc(Cl)cc2)nc2cc(Cl)c(C)cc12 (centres unmarked) [WR069878]
- pIC50 ([1]; read-out: Neurotoxicity IC50, full dose response, FIG. 2(a)): 3.62
- IC50 ([1]; read-out: Neurotoxicity ranking (IC50 in μM), approximate IC50 from screen at 10, 100 and 1000 μM, MTT): 200 µM
- IC90 against W2 (P. falciparum W2): 0.49 ng/mL (≈ 1.07 nM)
- Outcome in Aotus ([2]; 10 mg/kg/day x7 oral, groups of two, Cure = parasite free 90 days, R = average day of recrudescence, Failure = rescued with mefloquine): Cures and Cure
- Outcome ([2]; Aotus, oral, 10 mg/kg/day x 7 days, primary treatment): Cure
